Measured values: patent US12291518B2, “Thyroid hormone receptor agonists and use thereof” (Eccogene Inc., priority 2020, dated 2025)

Experiments:
THR beta-LBD = target: T1, THR beta-LBD (Homo sapiens, UniProt P10828); experiment: THR-β Coactivator Peptide Recruitment Assay (LanthaScreen TR-FRET); format: biochemical; conditions: TR-FRET coactivator recruitment, THR beta-LBD 0.5 nM; for EC50: read-out: THRβ EC50
T1 construct: THR beta-LBD (the final concentration is 0.5 nM) was added to the 384-well assay plate; purchased Invitrogen PV4686
T1 sequence (P10828 217-461 limits assumed): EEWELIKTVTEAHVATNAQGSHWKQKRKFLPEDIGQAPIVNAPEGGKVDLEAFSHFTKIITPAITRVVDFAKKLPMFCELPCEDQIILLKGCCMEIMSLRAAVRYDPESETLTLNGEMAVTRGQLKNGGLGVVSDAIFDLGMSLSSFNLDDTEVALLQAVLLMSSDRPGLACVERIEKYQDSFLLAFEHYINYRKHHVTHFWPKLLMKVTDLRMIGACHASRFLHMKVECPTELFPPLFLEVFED
Method: (§1) A time-resolved FRET (TR-FRET) assay was used to test representative compounds of the application.
(§2) THR-β Coactivator Peptide Recruitment Assay were conducted by using Invitrogen's LanthaScreen™ TR-FRET Thyroid Receptor beta Assay Kit (Catalog no. PV4686). Binding of an agonist to the nuclear receptor causes a subsequent binding of a coactivator peptide, resulting in fluorescence energy transfer from the labelled nuclear receptor to the proximal coactivator peptide, which reflects the binding affinity of the agonist and the nuclear receptor. The assay was conducted by following the manufacturer's instructions. Briefly, THR beta-LBD (the final concentration is 0.5 nM) was added to the 384-well assay plate containing test compounds, followed by addition of Fluorescein-SRC2-2 coactivator peptide and terbium (Tb)-labeled anti-GST antibody. The final concentration of THR beta-LBD, Fluorescein-SRC2-2 coactivator peptide and terbium (Tb)-labeled anti-GST antibody is 0.5 nM, 0.1 nM and 2 nM, respectively. After a gentle mix and incubation at room temperature for 2 h, the signal was read on the EnVision Multilabel Plate Reader at wavelengths of 520 nm and 495 nm. TR-FRET ratio was calculated by dividing the emission signal at 520 nm and the emission signal at 495 nm, and then was plotted against a sigmoidal dose response curve (four parameters, GraphPad™ Prism 8) to determine the EC50 value.

THR alpha-LBD = target: T2, THR alpha-LBD (Homo sapiens, UniProt P10827); experiment: THR-α Coactivator Peptide Recruitment Assay (LanthaScreen TR-FRET); format: biochemical; conditions: TR-FRET coactivator recruitment, THR alpha-LBD 0.25 nM; for EC50: read-out: THRα EC50
T2 construct: except that THR alpha-LBD of a final concentration 0.25 nM was used; purchased Invitrogen PV4687
T2 sequence (P10827 163-410 isoform P10827-2 limits assumed, other chains not shown): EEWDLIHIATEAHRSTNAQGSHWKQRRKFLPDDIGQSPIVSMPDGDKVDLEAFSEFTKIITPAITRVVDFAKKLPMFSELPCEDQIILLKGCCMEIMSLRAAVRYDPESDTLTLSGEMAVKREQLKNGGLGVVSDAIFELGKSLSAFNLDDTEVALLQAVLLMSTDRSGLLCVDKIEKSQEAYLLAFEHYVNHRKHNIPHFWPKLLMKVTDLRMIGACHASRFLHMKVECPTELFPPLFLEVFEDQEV
Method: as §1, §2
THR-α Coactivator Peptide Recruitment Assay were conducted by using Invitrogen's LanthaScreen™ TR-FRET Thyroid Receptor alpha Assay Kit (Catalog no. PV4687), following the same method described above except that THR alpha-LBD of a final concentration 0.25 nM was used.

Structure (SMILES)	THRβ Emax (THR beta-LBD)	EC50 (THR beta-LBD) [nM]	THRα Emax (THR alpha-LBD)	EC50 (THR alpha-LBD) [nM]
CC(C)(C)NC(=O)c1cc(Oc2c(Cl)cc(-n3nc(C(F)(F)F)c(=O)[nH]c3=O)cc2Cl)ccc1O [Compound 4, N-(tert-butyl)-5-(2,6-dichloro-4-(3,5-dioxo-6-(trifluoromethyl)-4,5-dihydro-1,2,4-triazin-2(3H)-yl)phenoxy)-2-hydroxybenzamide]	A (90~110)	20 to 100	B (40~85)	200 to 1000
O=C(NC1CCC1)c1cc(Oc2c(Cl)cc(-n3nc(C(F)(F)F)c(=O)[nH]c3=O)cc2Cl)ccc1O [Compound 5, N-cyclobutyl-5-(2,6-dichloro-4-(3,5-dioxo-6-(trifluoromethyl)-4,5-dihydro-1,2,4-triazin-2(3H)-yl)phenoxy)-2-hydroxybenzamide]	A (90~110)	20 to 100	B (40~85)	> 1000
O=C(NC12CC3(F)CC(F)(CC(F)(C3)C1)C2)c1cc(Oc2c(Cl)cc(-n3nc(C(F)F)c(=O)[nH]c3=O)cc2Cl)ccc1O [Compound 6, 5-(2,6-dichloro-4-(6-(difluoromethyl)-3,5-dioxo-4,5-dihydro-1,2,4-triazin-2 (3H)-yl)phenoxy)-2-hydroxy-N-(3,5,7-trifluoroadamantan-1-yl) benzamide]	B (75~90)	20 to 100	B (40~85)	> 1000
O=c1[nH]c(=O)n(-c2cc(Cl)c(S(=O)(=O)c3ccc(O)c(C4CCC4)c3)c(Cl)c2)nc1C(F)(F)F [Compound 9, 2-[3,5-dichloro-4-(3-cyclobutyl-4-hydroxy-phenyl)sulfonyl-phenyl]-6-(trifluoromethyl)-1,2,4-triazine-3,5-dione]	A (90~110)	> 100	B (40~85)	200 to 1000
O=C(NC1CCC1)c1cc(Oc2c(Cl)cc(-n3nc(C(F)(F)F)c(=O)[nH]c3=O)cc2Cl)c(F)cc1O [Compound 10, N-cyclobutyl-5-[2,6-dichloro-4-[3,5-dioxo-6-(trifluoromethyl)-1,2,4-triazin-2-yl]phenoxy]-4-fluoro-2-hydroxy-benzamide]	B (75~90)	> 100	C (<40)	> 1000
O=C(NC1CCC1)c1cc(Oc2c(Cl)cc(-n3nc(C(F)F)c(=O)[nH]c3=O)cc2Cl)c(F)cc1O [Compound 11, N-cyclobutyl-5-[2,6-dichloro-4-[6-(difluoromethyl)-3,5-dioxo-1,2,4-triazin-2-yl]phenoxy]-4-fluoro-2-hydroxy-benzamide]	A (90~110)	> 100	B (40~85)	> 1000
O=c1[nH]c(=O)n(-c2cc(Cl)c(Oc3ccc(O)c(S(=O)(=O)NC4CCC4)c3)c(Cl)c2)nc1C(F)F [Compound 12, N-cyclobutyl-5-[2,6-dichloro-4-[6-(difluoromethyl)-3,5-dioxo-1,2,4-triazin-2-yl]phenoxy]-2-hydroxy-benzenesulfonamide]	A (90~110)	< 2	A (85~110)	< 2
CNS(=O)(=O)c1cc(Oc2c(Cl)cc(-n3nc(C(F)F)c(=O)[nH]c3=O)cc2Cl)ccc1O [Compound 13, 5-(2,6-dichloro-4-(6-(difluoromethyl)-3,5-dioxo-4,5-dihydro-1,2,4-triazin-2(3H)-yl)phenoxy)-2-hydroxy-N-methylbenzenesulfonamide]	A (90~110)	< 2	A (85~110)	< 2
O=c1[nH]c(=O)n(-c2cc(Cl)c(Oc3ccc(O)c(S(=O)(=O)NC4CC4)c3)c(Cl)c2)nc1C(F)F [Compound 14, N-cyclopropyl-5-(2,6-dichloro-4-(6-(difluoromethyl)-3,5-dioxo-4,5-dihydro-1,2,4-triazin-2(3H)-yl)phenoxy)-2-hydroxybenzenesulfonamide]	A (90~110)	< 2	A (85~110)	< 2
O=c1[nH]c(=O)n(-c2cc(Cl)c(Oc3ccc(O)c([S@TB3](=O)(=O)N4CCOCC4)c3)c(Cl)c2)nc1C(F)F [Compound 15, 2-(3,5-dichloro-4-(4-hydroxy-3-(morpholinosulfonyl)phenoxy)phenyl)-6-(difluoromethyl)-1,2,4-triazine-3,5(2H,4H)-dione]	B (75~90)	< 2	B (40~85)	< 2
O=c1[nH]c(=O)n(-c2cc(Cl)c(Oc3ccc(O)c(S(=O)(=O)N4CCC(O)CC4)c3)c(Cl)c2)nc1C(F)F [Compound 16, 2-(3,5-dichloro-4-(4-hydroxy-3-((4-hydroxypiperidin-1-yl)sulfonyl)phenoxy)phenyl)-6-(difluoromethyl)-1,2,4-triazine-3,5(2H,4H)-dione]	B (75~90)	< 2	A (85~110)	2 to 200
N#CC1(NS(=O)(=O)c2cc(Oc3c(Cl)cc(-n4nc(C(F)F)c(=O)[nH]c4=O)cc3Cl)ccc2O)CC1 [Compound 17, N-(1-cyanocyclopropyl)-5-(2,6-dichloro-4-(6-(difluoromethyl)-3,5-dioxo-4,5-dihydro-1,2,4-triazin-2(3H)-yl)phenoxy)-2-hydroxybenzenesulfonamide]	A (90~110)	< 2	A (85~110)	2 to 200
O=c1[nH]c(=O)n(-c2cc(Cl)c(Oc3ccc(O)c(S(=O)(=O)N[C@H]4C[C@H](C(=O)NC5CC5)C4)c3)c(Cl)c2)nc1C(F)F [Compound 18]	B (75~90)	2 to 20	B (40~85)	200 to 1000
O=c1[nH]c(=O)n(-c2cc(Cl)c(Oc3ccc(O)c(S(=O)(=O)NC4CC4)c3)c(Cl)c2)nc1C(F)(F)F [Compound 19, N-cyclopropyl-5-[2,6-dichloro-4-[3,5-dioxo-6-(trifluoromethyl)-1,2,4-triazin-2-yl]phenoxy]-2-hydroxy-benzenesulfonamide]	A (90~110)	< 2	A (85~110)	2 to 200
CNS(=O)(=O)c1cc(Oc2c(Cl)cc(-n3nc(C(F)(F)F)c(=O)[nH]c3=O)cc2Cl)ccc1O [Compound 20, 5-(2,6-dichloro-4-(3,5-dioxo-6-(trifluoromethyl)-4,5-dihydro-1,2,4-triazin-2(3H)-yl)phenoxy)-2-hydroxy-N-methylbenzenesulfonamide]	A (90~110)	2 to 20	A (85~110)	2 to 200
O=c1[nH]c(=O)n(-c2cc(Cl)c(Oc3ccc(O)c(S(=O)(=O)N4CCC(F)(F)CC4)c3)c(Cl)c2)nc1C(F)(F)F [Compound 21, 2-(3,5-dichloro-4-(3-((4,4-difluoropiperidin-1-yl)sulfonyl)-4-hydroxyphenoxy)phenyl)-6-(trifluoromethyl)-1,2,4-triazine-3,5(2H,4H)-dione]	A (90~110)	2 to 20	B (40~85)	2 to 200
CNC(=O)C1(NS(=O)(=O)c2cc(Oc3c(Cl)cc(-n4nc(C(F)F)c(=O)[nH]c4=O)cc3Cl)ccc2O)CC1 [Compound 22, 1-[[5-[2,6-dichloro-4-[6-(difluoromethyl)-3,5-dioxo-1,2,4-triazin-2-yl]phenoxy]-2-hydroxy-phenyl]sulfonylamino]-N-methyl-cyclopropane carboxamide]	B (75~90)	2 to 20	B (40~85)	200 to 1000
